Legend:
[1] = biological target: PDGF-R (Homo sapiens, UniProt P09619); test: PDGF-R ELISA; type: cell-based
Text: A PDGF-R ELISA is described in International Patent Publication No. WO 96/40116, published December 19, 1996 by Tang et al.

[2] = system: MET; test: MET biochemical kinase assay; design: species or system human; concentration or dose not given beside the values
Summary of the method: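 Capture ELISA: anti-rabbit Fc coat, rabbit anti-MET cytoplasmic domain pAb, lysate MET captured, washed. Compound + kinase buffer (ATP, divalent metals). Readout anti-pTyr-HRP/TMB, colorimetric.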

[3] = biological target: T1, EGFR (Homo sapiens, UniProt P00533); test: EGFR ELISA assay (in vitro kinase activity, EGFR captured from A431 cell lysate); type: biochemical; design: concentration or dose not given beside the values
T1 construct: Add 7 ug A431 cell lysate per well (EGFR source); endogenous in cells; host or cells: A431
Summary of the method: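 EGFR from A431 lysate was captured on anti-EGFR antibody-coated plates and preincubated with compounds for 30 min. Autophosphorylation ran 5 min with 3 uM ATP and 5 mM MnCl2 (final), stopped with 20 mM EDTA. Phosphotyrosine was detected by anti-pTyr ELISA with ABTS/H2O2, read at 410 nm.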

T1 sequence (P00533 25-1210): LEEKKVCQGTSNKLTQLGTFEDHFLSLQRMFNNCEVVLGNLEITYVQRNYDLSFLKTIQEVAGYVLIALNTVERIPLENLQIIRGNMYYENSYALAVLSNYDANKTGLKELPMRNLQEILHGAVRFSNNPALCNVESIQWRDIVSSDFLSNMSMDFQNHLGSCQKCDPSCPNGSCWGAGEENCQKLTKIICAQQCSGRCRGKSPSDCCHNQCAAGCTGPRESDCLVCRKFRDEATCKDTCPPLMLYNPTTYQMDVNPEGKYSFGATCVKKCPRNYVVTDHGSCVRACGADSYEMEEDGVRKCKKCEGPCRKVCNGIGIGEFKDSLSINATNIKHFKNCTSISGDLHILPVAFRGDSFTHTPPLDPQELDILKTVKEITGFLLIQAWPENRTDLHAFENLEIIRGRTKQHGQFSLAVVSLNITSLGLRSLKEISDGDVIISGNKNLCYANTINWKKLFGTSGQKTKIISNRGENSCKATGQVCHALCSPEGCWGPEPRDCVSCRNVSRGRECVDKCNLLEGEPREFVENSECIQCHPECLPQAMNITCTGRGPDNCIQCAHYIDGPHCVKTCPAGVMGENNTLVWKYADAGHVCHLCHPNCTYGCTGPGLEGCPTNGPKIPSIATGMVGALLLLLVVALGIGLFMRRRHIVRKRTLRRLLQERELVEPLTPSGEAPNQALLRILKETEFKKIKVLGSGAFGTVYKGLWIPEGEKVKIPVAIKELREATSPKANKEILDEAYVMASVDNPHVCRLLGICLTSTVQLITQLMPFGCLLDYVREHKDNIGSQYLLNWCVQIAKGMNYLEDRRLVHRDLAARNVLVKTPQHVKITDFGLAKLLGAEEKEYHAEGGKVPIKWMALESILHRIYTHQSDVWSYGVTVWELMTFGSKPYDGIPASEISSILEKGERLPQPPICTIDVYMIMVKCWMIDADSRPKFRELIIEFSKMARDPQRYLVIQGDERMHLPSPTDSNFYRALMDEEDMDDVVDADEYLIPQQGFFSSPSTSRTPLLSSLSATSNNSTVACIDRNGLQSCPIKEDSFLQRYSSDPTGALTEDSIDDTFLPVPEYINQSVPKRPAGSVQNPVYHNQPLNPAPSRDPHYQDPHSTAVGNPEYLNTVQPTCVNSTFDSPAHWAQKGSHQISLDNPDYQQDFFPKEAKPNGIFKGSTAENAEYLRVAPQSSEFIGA
PDGF-R, sequence (P09619 33-1106, species assumed): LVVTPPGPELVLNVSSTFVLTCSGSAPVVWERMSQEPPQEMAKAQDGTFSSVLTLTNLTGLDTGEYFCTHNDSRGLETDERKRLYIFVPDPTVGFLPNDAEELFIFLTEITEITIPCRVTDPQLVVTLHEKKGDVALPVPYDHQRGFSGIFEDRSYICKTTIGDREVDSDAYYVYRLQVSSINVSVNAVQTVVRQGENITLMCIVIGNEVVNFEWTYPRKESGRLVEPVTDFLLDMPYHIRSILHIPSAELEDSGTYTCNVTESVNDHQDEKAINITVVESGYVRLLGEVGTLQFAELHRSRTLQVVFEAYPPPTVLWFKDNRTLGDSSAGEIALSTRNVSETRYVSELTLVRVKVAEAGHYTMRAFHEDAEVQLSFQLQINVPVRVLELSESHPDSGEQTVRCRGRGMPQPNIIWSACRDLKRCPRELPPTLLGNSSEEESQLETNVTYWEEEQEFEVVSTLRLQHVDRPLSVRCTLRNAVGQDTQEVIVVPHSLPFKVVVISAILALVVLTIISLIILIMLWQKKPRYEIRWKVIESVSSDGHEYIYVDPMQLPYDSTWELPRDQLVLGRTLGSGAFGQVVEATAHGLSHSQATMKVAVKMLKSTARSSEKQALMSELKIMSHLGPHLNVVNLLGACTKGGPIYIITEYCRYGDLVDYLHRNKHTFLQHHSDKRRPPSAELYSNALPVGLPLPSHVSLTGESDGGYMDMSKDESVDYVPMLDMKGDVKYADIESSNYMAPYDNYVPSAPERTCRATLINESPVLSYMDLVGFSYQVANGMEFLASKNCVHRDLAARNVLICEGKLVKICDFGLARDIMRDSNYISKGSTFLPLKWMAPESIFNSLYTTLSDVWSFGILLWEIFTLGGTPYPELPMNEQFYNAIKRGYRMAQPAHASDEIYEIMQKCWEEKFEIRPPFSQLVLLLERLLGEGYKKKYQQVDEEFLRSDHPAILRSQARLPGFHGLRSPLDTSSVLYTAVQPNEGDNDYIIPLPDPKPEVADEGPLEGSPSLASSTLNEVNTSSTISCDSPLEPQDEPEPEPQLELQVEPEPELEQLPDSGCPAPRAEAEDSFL

SMILES | PDGF Kinase %Inhibition [1] [%] | Met Kinase % Inhibition [2] [%] | Biochem EGFR %Inhibition [3] [%]
Cc1c(Br)ccc2c1C(=Cc1ccc([N+](=O)[O-])cc1)C(=O)N2 [10734/C06] | -0.2 | 48.3 | 18.4
CC(C)(C)c1cc(C=C2C(=O)Nc3ccc(CCCl)cc32)cc(C(C)(C)C)c1OCc1ccccc1 [10733/G05] | -1.1 | 1.8 | 1.5
CCOc1cccc(C=C2C(=O)Nc3ccc(S(=O)(=O)NC)cc32)c1O [10734/D02] | 6.4 | 46.0 | 5.2
COc1c(O)ccc(C=C2C(=O)Nc3ccc(S(=O)(=O)Nc4ccc(C(F)(F)F)cc4)cc32)c1[N+](=O)[O-] [10733/E11] | 15.9 | 71.8 | 31.6
COc1cc(Br)cc(C=C2C(=O)Nc3ccc(S(=O)(=O)Nc4ccc(C(F)(F)F)cc4)cc32)c1O [10733/E08] | 75.2 | 81.1 | 54.2
O=C1Nc2ccc(CCCl)cc2C1=Cc1cc([N+](=O)[O-])ccc1O [10733/G10] | -58.0 | 41.9 | 18.2
Cc1cc(C=C2C(=O)Nc3ccc(CCCl)cc32)cc(C)c1OCc1ccccc1 [10733/G07] | -6.8 | 8.5 | 18.1
O=C1Nc2ccc(I)cc2C1=Cc1cc(Br)cc(Br)c1O [10734/B07] | 18.8 | 93.2 | 65.5
Cc1c(Br)ccc2c1C(=Cc1cc(Cl)ccc1O)C(=O)N2 [10734/C04] | 24.5 | 90.7 | 38.1
CNS(=O)(=O)c1ccc2c(c1)C(=Cc1cccc(F)c1O)C(=O)N2 [10734/D08] | 2.0 | 49.8 | -13.7
O=C1Nc2c(Br)cc(Br)cc2C1=Cc1cc(Cl)cc(Cl)c1O [10734/A03] | 22.3 | 87.8 | 18.5
COc1c(O)ccc(C=C2C(=O)Nc3ccc(CCCl)cc32)c1[N+](=O)[O-] [10733/G11] | -4.4 | 32.6 | -1.0
O=C1Nc2ccc(I)cc2C1=Cc1ccc(O)c(Br)c1 [10734/B09] | 12.6 | 94.3 | 34.9
CCN(CC)c1ccc(C=C2C(=O)Nc3ccc(Br)c(C)c32)c(O)c1 [10734/C05] | 3.8 | 52.7 | 9.3
Cc1c(Br)ccc2c1C(=Cc1cc(Br)cc(Br)c1O)C(=O)N2 [10734/C07] | 32.0 | 96.8 | 41.0
O=C1Nc2c(Br)cc(Br)cc2C1=Cc1ccc(Br)s1 [10734/A11] | 5.5 | 51.9 | 12.5
O=C1Nc2c(Br)cc(Br)cc2C1=Cc1ccc(O)c(Br)c1 [10734/A09] | -9.5 | 88.4 | 27.3
CNS(=O)(=O)c1ccc2c(c1)C(=Cc1cc(Cl)ccc1O)C(=O)N2 [10734/D04] | 13.5 | 46.9 | -10.7
COc1c(C)cc(C=C2C(=O)Nc3ccc(S(=O)(=O)N4CCOCC4)cc32)cc1C [10733/F06] | -4.8 | 20.9 | 17.8
O=C1Nc2c(Br)cc(Br)cc2C1=Cc1cc(Cl)ccc1O [10734/A04] | 11.7 | 68.0 | 11.4
COc1c(C(C)(C)C)cc(C=C2C(=O)Nc3ccc(S(=O)(=O)Nc4ccc(C(F)(F)F)cc4)cc32)cc1C(C)(C)C [10733/E04] | -13.7 | 17.5 | 45.4
CCN(CC)c1ccc(C=C2C(=O)Nc3ccc(I)cc32)c(O)c1 [10734/B05] | 56.3 | 67.8 | 17.8
COc1c(O)ccc(C=C2C(=O)Nc3ccc(S(=O)(=O)N4CCOCC4)cc32)c1[N+](=O)[O-] [10733/F11] | -17.8 | 44.4 | 0.6
CNS(=O)(=O)c1ccc2c(c1)C(=Cc1ccc(Br)s1)C(=O)N2 [10734/D11] | 17.0 | 33.9 | 14.6
CC(C)(C)c1cc(C=C2C(=O)Nc3ccc(S(=O)(=O)N4CCOCC4)cc32)cc(C(C)(C)C)c1OCc1ccccc1 [10733/F05] | -25.1 | 65.1 | 84.6
O=C1Nc2ccc(S(=O)(=O)N3CCOCC3)cc2C1=Cc1cc([N+](=O)[O-])ccc1O [10733/F10] | -5.6 | 24.4 | 21.9
Cc1c(Br)ccc2c1C(=Cc1cc(Cl)cc(Cl)c1O)C(=O)N2 [10734/C03] | 24.5 | 88.2 | 48.6
Cc1cc(C=C2C(=O)Nc3ccc(S(=O)(=O)N4CCOCC4)cc32)cc(C)c1OCc1ccccc1 [10733/F07] | 1.7 | -16.4 | 19.2
O=C1Nc2ccc(I)cc2C1=Cc1ccc([N+](=O)[O-])cc1 [10734/B06] | 0.2 | 91.2 | 54.0
O=C1Nc2c(Br)cc(Br)cc2C1=Cc1cc(Br)cc(Br)c1O [10734/A07] | 21.9 | 89.3 | 15.2
